According to paper PMC11475570, “Impact of Optimized Ku–DNA Binding Inhibitors on the Cellular and In Vivo DNA Damage Response” (Cancers, 2024):

Experiments:
Ku 70/80 = molecular target: T1, Ku 70/80 (Homo sapiens, UniProt P12956+P13010); test: EMSA Ku–DNA binding inhibition; conditions: 32P-labeled 30-bp duplex DNA, purified Ku 70/80, mean and SD of triplicate
T1 construct: made in house; host or cells: baculovirus-infected Sf9 cells
Description: (§1) The inhibitory activity of Ku-DBis on Ku-DNA binding was evaluated in vitro using Electrophoretic mobility shift assays (EMSA) with a [^32P]-labeled 30-bp duplex DNA and purified Ku 70/80. Kinase assays were performed to measure the DNA-dependent transfer of [^32P] from γ-[^32P] ATP to a synthetic p53-based peptide substrate, both as previously described. Both EMSA and DNA-PK inhibitor titration assays were performed in triplicate. Data were fit to standard binding curves using GraphPad Prism to determine IC50 values.

Ku70–Ku80 [1] = molecular target: T2, Ku70–Ku80 (Homo sapiens, UniProt P12956+P13010); test: Microscale thermophoresis (MST); assay type: binding; conditions: labeled Ku 5 nM, 5% DMSO, single-site fit
T2 construct: made in house; host or cells: baculovirus-infected Sf9 cells
T2 sequence (P12956 whole entry): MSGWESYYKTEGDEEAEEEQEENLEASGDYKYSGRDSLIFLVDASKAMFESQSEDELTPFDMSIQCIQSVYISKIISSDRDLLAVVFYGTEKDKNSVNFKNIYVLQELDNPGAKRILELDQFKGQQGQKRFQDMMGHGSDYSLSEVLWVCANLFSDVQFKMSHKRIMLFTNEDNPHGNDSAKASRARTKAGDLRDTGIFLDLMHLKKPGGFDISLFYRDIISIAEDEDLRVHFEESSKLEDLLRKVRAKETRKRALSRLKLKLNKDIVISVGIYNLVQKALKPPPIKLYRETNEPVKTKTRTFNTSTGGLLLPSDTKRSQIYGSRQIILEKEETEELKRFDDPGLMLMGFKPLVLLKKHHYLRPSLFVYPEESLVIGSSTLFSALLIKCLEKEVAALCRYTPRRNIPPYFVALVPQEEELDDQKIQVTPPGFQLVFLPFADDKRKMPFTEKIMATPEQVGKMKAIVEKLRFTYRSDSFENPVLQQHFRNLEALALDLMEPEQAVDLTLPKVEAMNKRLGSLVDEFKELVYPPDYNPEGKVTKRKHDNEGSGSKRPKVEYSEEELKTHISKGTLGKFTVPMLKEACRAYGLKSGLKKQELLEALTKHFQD
T2 sequence (P13010 whole entry): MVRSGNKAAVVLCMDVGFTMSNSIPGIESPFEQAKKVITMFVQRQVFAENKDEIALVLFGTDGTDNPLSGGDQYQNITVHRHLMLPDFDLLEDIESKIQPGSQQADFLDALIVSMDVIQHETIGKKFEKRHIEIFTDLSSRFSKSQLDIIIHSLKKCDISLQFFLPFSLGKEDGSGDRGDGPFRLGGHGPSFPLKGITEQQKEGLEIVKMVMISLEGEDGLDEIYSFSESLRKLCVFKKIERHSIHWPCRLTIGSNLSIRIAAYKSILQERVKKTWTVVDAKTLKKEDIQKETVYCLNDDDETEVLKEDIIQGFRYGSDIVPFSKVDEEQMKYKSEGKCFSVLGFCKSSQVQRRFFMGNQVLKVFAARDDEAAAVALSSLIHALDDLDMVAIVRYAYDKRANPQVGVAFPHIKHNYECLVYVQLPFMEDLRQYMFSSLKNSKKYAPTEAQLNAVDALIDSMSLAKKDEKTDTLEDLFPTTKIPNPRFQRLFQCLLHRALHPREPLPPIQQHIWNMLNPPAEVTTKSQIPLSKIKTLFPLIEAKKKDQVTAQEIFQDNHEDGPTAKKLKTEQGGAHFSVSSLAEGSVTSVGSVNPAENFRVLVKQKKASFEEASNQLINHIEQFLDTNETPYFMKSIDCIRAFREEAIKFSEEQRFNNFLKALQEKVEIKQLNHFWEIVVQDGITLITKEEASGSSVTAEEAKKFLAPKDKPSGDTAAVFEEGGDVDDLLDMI
Description: Ku heterodimer was labeled using the Monolith NT™ Protein Labeling Kit RED-NHS (2nd generation amine reactive, NanoTemper Technologies GmbH, MO-L011, München, Germany), following the manufacturer’s protocol. Ku-DBi 3392 powder was resuspended in 100% DMSO, and the concentration was adjusted to 50 mM after UV absorbance measurement (absorbance at 417 nm with an extension coefficient equal to 15.2 mM^−1 cm^−1). The ligand stock solution was sonicated in an ultrasonic bath before preparations of the dilution series. The MST and Differential Scanning Fluorometry (DSF) assays contain 5% DMSO to fit the DMSO concentration at the highest ligand concentration (200 µM). The labeled protein (5 nM) was incubated with ligand 3392 ranging from 98 nM to 200 µM in a 12-point 1:1 dilution series. Protein–ligand solutions were incubated for 30 min at room temperature before MST measurements, which were performed in triplicate. Proteins were transferred to capillaries (Monolith NT. Automated Premium Capillary Chips), and binding was analyzed with a Monolith NT. Automated pico-RED device using MO. Control Software with nano-red excitation, LED light adjusted to 20% excitation power, and infrared laser (MST power) set to medium. The dissociation constants (KD) were determined with MO. […]

Ku80-null MEF = test: Bleomycin sensitization, CCK-8; assay type: cell-based; conditions: 20 μM 3392 for 24 h, then bleomycin 48 h
Description: (§2) page 20: Supplementary Figure S4. Ku-DBi 3392 sensitivity to bleomycin in wild-type (WT) and Ku 80-null MEFs cells. MEF cells were pre-treated with vehicle or 20 μM 3392 for 24 h and then increasing concentrations of bleomycin for 48 h after which cell viability was determined by CCK-8. Data are presented as the mean and SEM of triplicate determinations. (1 picture or pasted object on this page, not shown here)

Ku wild-type MEFs = test: Bleomycin sensitization, CCK-8; assay type: cell-based; conditions: 20 μM 3392 for 24 h, then bleomycin 48 h
Description: as §2

Ku70–Ku80 [2] = molecular target: T2, Ku70–Ku80; test: nanoDSF thermostability and aggregation; assay type: binding; conditions: Ku 5 µM, 5 µM 3392, up to 25 µM no additional change
Description: The thermostability and aggregation propensity of Ku was assessed using a Prometheus Panta nanoDSF instrument (NanoTemper Technologies GmbH, München, Germany). High-sensitivity capillaries were filled with Ku (10 μL each, experiments in triplicate) at a concentration of 5 µM into the instrument. We titrated against ligand 3392 covering a concentration ranging from 0 to 30 µM with measurements collected at a 1 °C-per-minute scan rate from 25 to 95 °C. Thermal unfolding was assessed by the increase in intrinsic tryptophan fluorescence detected at 350 and 330 nm following excitation at 280 nm. Inflection points in the thermal denaturation curves were identified using the first derivatives of the ratio r = fluorescence (350 nm)/fluorescence (330 nm). We measured dynamic light scattering (DLS) and turbidity throughout the heating ramp using back reflection to characterize protein aggregation. We determined aggregation temperatures using turbidity variations and increases in particle sizes.

DNA-PK = molecular target: T3, DNA-PK (Homo sapiens, UniProt P12956+P13010); test: DNA-PK kinase assay (phosphate transfer to p53 peptide); assay type: biochemical
T3 construct: made in house; Ku 70/80 from baculovirus-infected Sf9 cells
T3 sequence (P12956 whole entry): as the sequence (P12956 whole entry) above
T3 sequence (P13010 whole entry): as the sequence (P13010 whole entry) above
Description: as §1

A549 cells = test: Clonogenic survival in combination with IR; assay type: cell-based, Human; conditions: A549, 2 Gy
Description: (§3) NSCLC cells were seeded at 2 × 10^5 cells per well into 24-well plates and grown as monolayers at 37 °C and 5% CO2 in media one day before Ku-DBi or vehicle treatments. After 2 h, cells were placed on ice for 10 min and kept on ice during irradiation with either 2 or 5 Gy of 160 kVp X-rays using a Precision X-ray machine (North Branford, CT, USA) at a dose rate of 0.687 Gy/min. Radiation dosimetry measurements were performed using a Farmer-type ionization chamber (PTW Model N30013, Freiburg, Germany) in conjunction with a Keithley electrometer (Model K602, Cleveland, OH, USA). After irradiation, cells were incubated for 1 h at 37 °C, trypsinized, replated in 100 mm dishes, and incubated at 37 °C in 5% CO2. After 11 days, cells were carefully washed in PBS before fixing and staining in 0.5% crystal violet (Cat: C581-100, Fisher Scientific, Hampton, NH, USA) with 6% glutaraldehyde (Glutaraldehyde solution, 25%. Cat: O2957-1, Fisher Scientific) in PBS for 1 h at RT. The staining solution was removed, and cells were washed with water and air-dried. For clonogenic survival analysis, colonies containing more than 50 cells were manually counted and normalized to vehicle control conditions to determine surviving fractions.

H23 cells = test: Clonogenic survival in combination with IR; assay type: cell-based, Human
Description: as §3

MDA-MB-436 = test: Bleomycin-sensitization activity, CCK-8; assay type: cell-based, Human; conditions: BRCA1 mutant MDA-MB-436
Description: (§4) Cell metabolism/viability was assessed using a mitochondrial metabolism assay (CCK-8) kit (Cell Counting Kit-8, Cat: CK04, Dojindo Laboratories, Rockville, MD, USA) as previously described. Briefly, cells were seeded at a density of 3 × 10^3 cells per well in 96-well plates and allowed to adhere and stretch for 18–24 h prior to treatment. Cells were pre-treated with Ku-DBi for 24 h before bleomycin treatments. Subsequently, cells were incubated for an additional 48 h at 37 °C after which CCK-8 assay was performed. The absorbance of the formed formazan product in each well was measured at 450 nm and compared to vehicle-treated controls to determine percent cell viability. The results represent the average and SEM of triplicate determinations.

MDA-MB-468 = test: Bleomycin-sensitization activity, CCK-8; assay type: cell-based, Human; conditions: BRCA1 wild-type MDA-MB-468
Description: as §4

T1 sequence (P12956 whole entry): as the sequence (P12956 whole entry) above
T1 sequence (P13010 whole entry): as the sequence (P13010 whole entry) above

IC50 (Ku 70/80): 4.15 ± 1.07 µM
Kd (Ku70–Ku80 [1]): 2.1 ± 0.3 µM
Thermal stability of Ku (Ku70–Ku80 [2]): induced a shift in thermal stability
DNA-PK inhibitory activity, fold more active than fluoro-modified counterparts (3618 and 3649) (DNA-PK): ~ 2.5 fold
IC50 (DNA-PK; DNA-dependent phosphate transfer to synthetic p53 peptide, purified DNA-PK, mean and SD of triplicate): 0.77 ± 0.19 µM
SMILES: COc1ccc(-c2ccc(/C=C3\C(=O)N(c4cccc(C(=O)O)c4)c4ccccc43)o2)cc1C(=O)Nc1cccc(OC(F)(F)F)c1 [GL-3392]
Ku-DBi-dependent change in sensitivity to bleomycin (Ku80-null MEF): did not increase sensitivity
Ku-DBi-dependent change in sensitivity to bleomycin (Ku wild-type MEFs): increases in the sensitivity to bleomycin were only observed in Ku wild-type cells
Sensitivity in combination with IR, clonogenic survival (A549 cells): increased sensitivity when combined with a 2 Gy radiation dose
Sensitivity in combination with IR, clonogenic survival (H23 cells; ATM-null H23, 2 Gy): minimal, statistically insignificant effect
Sensitivity in combination with IR, clonogenic survival (H23 cells; ATM-null H23, 5 Gy): significantly sensitized
Change in sensitivity to bleomycin (MDA-MB-436): decrease in sensitivity to bleomycin
Change in sensitivity to bleomycin (MDA-MB-468): increase in sensitivity
